Measurements taken from PMC8459971, “Evaluation of the hepatotoxicity of the novel GPR40 (FFAR1) agonist CPL207280 in the rat and monkey” (PLoS ONE, 2021).
“And” between values parts separate entries of the source, which are not always exact repeats. Identical values can stand only once.

Tests used:
[1] = Viability assay, HepG2 cells, MTT test, 48 h; type: cell-based, human; conditions: human, HepG2 cells, sheet Fig1 panel B (HepG2), 48 h, replicates, read-out: viability, normalized to DMSO-treated controls
Experimental: (§1) To study the viability of the liver cells, 5 × 10^3 HepG2 (ATCC®) or human primary cells (ThermoFisher Scientific, USA) were seeded in 100 μL of DMEM media (Gibco; Thermo Fisher Scientific, USA) supplemented with fetal bovine serum (FBS)- in a 96-well plate. […] The experiments were performed in triplicates.

[2] = tested on: HepG2; assay: Viability assay, HepG2 cells, MTT test, 48 h; type: cell-based, human; conditions: for viability, normalized to DMSO-treated controls: sheet Fig1 panel B (HepG2), 48 h, replicates, in % (unit assumed)
Experimental: as §1

[3] = Viability assay, human primary hepatocytes, RT-glo, 48 h; type: cell-based; conditions: human, primary human hepatocytes, sheet Fig1 panel C (primary human hepatocytes), 48 h, replicates, read-out: viability, normalized to DMSO-treated controls
Experimental: as §1

[4] = tested on: human primary hepatocytes; assay: as above; type: cell-based; conditions: for viability, normalized to DMSO-treated controls: sheet Fig1 panel C (primary human hepatocytes), replicates, in % (unit assumed)
Experimental: as §1

[5] = Stability in microsomes, dog; type: in vitro ADME; conditions: for average DEG [%]: dog microsomes, with cofactors
Experimental: (§2) The final incubation volume was 500 μL. Two control compounds (verapamil and donepezil) were included for each microsomal species, along with the appropriate vehicle control. The reactions were terminated by transferring 50 μL of incubate to 100 μL methanol containing an internal standard (metoprolol) at appropriate time points (0, 10, 20, 40, 60, and 120 min for the test compound and 0, 5, 10, 20, 40, and 60 min for the control compounds). The termination plates were centrifuged at 4000 x g at 4°C for 30 min to precipitate the protein. The supernatants were then collected for analysis, and LC-MS/MS was used for detection purposes. The system consisted of an Acquity™ Binary Solvent Manager, Acquity™ 4-position heated column manager, 2777 Ultra High Pressure Autosampler, and a Xevo-TQ MS triple quadrupole mass spectrometer (Waters Ltd., Herts, UK). This process was carried out twice.

[6] = Stability in microsomes, monkey; type: in vitro ADME; conditions: for average DEG [%]: monkey microsomes, with cofactors
Experimental: as §2

[7] = Stability in microsomes, mini pig; type: in vitro ADME; conditions: for average DEG [%]: minipig microsomes, with cofactors
Experimental: as §2

[8] = in vivo; conditions: for AUC(0-t): AUC24h (Mean); for AUC24h (Mean): both
[9] = biological target: MRP3 (Homo sapiens, UniProt O15438); assay: Vesicular transport inhibition assay, MRP3; conditions: for Accumulation (counts per minute; CPM) with AMP / Accumulation (counts per minute; CPM) with ATP: MRP3;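 note: membrane vesicles with radiolabelled probe substrate and 2 mM glutathione, 4 mM ATP versus AMP background control, vesicle-trapped substrate quantified by liquid scintillation counting after filtration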;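 for Accumulation (counts per minute; CPM) with AMP: ATP 4 mM vs AMP background separates transporter uptake from diffusion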;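 for Accumulation (counts per minute; CPM) with ATP: ATP 4 mM vs AMP background separates transporter uptake from diffusion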
Experimental: (§3) In the vesicular transport inhibition assay (for BSEP, MRP) compounds were incubated with membrane vesicle preparations and the probe substrate. Incubations were carried out in the presence of 4 mM ATP or AMP to distinguish between transporter-mediated uptake and passive diffusion into the vesicles. For MRP2 and MRP3, reactions were carried out in the presence of 2 mM glutathione. Compounds were added to the reaction mixture in 0.75 μL of solvent (1% of the final incubation volume). […] Reactions were initiated by the addition of 25 μL of 12 mM MgATP (or 12 mM AMP in assay buffer as a background control) and preincubated separately. Reactions were quenched by the addition of 200 μL of ice-cold washing buffer and immediate filtration via glass fiber filters mounted on a 96-well plate (filter plate). The filters were washed (5 × 200 μL of ice-cold washing buffer), dried, and the amount of substrate inside the filtered vesicles was determined by liquid scintillation counting.

[10] = biological target: BSEP (Homo sapiens, UniProt O95342); assay: Vesicular transport inhibition assay, BSEP
Experimental: as §3

[11] = biological target: OATP1A2 (Homo sapiens, UniProt P46721); assay: Uptake transporter inhibition assay, OATP1A2; conditions: for Accumulation (counts per minute; CPM) HEK293FT-MOCK / Accumulation (counts per minute; CPM) HEK293FT-OATP1A2: OATP1A2;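 note: cellular uptake of a radiolabeled probe substrate in HBSS pH 7.4 at 37 °C with test compound or solvent, measured by liquid scintillation counting of cell lysates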
Experimental: For the uptake transporter inhibition assay, cells were washed twice with 100 μL of the appropriate buffer (HK, pH 7.4) for OATP1B1, followed by HBSS (pH 7.4) for (NTCP, OAT1, OAT2v1, OATP1A2, and OATP1B3). Uptake experiments were carried out at 37 ± 1°C in 50 μL of the respective buffer containing the probe substrate and the compound or solvent. […] After the experiment, cells were washed twice with 100 μL of cold appropriate buffer and lysed with 50 μL of 0.1 M NaOH. Radiolabeled probe substrate transport was determined by measuring an aliquot (35 μL) from each well for liquid scintillation counting.

[12] = Dog (Beagle) microsomes, mean n = 2
[13] = Monkey (Cynomolgus) microsomes, mean n = 2
[14] = Mini pig microsomes, mean n = 2

Chain of OATP1A2 (P46721 whole entry): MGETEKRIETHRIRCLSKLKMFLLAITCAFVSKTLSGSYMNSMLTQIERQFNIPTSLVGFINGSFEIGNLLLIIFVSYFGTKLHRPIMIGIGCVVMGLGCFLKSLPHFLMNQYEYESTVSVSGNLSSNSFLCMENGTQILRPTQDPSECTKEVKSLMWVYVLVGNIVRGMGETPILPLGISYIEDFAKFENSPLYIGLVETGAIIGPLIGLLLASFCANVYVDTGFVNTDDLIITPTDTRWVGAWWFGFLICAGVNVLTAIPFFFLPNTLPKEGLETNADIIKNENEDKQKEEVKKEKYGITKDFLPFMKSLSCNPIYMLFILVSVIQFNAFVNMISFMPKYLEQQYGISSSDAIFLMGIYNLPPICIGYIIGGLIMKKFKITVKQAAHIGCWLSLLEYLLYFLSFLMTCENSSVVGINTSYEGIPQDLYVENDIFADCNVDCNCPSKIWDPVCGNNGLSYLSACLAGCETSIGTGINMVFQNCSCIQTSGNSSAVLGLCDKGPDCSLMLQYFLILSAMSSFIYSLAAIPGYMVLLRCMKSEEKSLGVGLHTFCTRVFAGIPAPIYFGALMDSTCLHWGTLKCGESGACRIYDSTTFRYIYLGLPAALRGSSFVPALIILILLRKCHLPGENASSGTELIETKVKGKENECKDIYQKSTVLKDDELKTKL
Chain of BSEP (O95342 whole entry): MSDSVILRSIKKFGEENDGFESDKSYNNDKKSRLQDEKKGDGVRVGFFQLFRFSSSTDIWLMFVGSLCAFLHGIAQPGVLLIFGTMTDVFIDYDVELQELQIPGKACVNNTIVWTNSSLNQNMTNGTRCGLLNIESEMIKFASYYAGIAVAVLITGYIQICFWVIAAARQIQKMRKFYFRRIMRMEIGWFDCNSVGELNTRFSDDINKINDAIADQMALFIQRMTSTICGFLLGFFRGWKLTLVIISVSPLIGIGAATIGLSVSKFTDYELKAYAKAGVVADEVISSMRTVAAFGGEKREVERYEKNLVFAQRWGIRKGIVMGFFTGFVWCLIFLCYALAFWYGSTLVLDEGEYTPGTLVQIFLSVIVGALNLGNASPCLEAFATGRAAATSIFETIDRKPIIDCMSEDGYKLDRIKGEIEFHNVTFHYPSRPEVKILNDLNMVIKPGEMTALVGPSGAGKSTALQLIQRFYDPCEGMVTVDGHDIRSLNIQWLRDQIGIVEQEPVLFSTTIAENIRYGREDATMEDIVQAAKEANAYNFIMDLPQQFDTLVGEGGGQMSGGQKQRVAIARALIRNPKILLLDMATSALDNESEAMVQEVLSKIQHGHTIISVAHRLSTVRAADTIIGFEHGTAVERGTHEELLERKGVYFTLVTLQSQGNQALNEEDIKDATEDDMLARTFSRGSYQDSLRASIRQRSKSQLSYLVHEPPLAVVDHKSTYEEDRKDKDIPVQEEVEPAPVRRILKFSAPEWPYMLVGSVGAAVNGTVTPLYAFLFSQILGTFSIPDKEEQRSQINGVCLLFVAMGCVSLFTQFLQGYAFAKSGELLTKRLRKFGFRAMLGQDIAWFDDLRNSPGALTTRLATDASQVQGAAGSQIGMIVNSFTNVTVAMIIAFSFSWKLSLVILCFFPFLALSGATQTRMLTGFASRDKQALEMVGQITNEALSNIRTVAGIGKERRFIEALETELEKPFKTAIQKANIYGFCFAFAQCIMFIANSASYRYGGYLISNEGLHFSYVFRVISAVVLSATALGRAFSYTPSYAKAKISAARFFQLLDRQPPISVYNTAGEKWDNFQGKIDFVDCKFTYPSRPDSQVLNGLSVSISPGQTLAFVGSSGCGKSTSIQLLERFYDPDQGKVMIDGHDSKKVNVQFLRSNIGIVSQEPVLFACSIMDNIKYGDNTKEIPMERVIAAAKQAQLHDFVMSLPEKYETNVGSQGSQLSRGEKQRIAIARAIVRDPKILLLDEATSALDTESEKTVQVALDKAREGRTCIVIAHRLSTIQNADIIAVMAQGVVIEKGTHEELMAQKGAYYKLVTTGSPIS
Chain of MRP3 (O15438 whole entry, the tested form may be a part): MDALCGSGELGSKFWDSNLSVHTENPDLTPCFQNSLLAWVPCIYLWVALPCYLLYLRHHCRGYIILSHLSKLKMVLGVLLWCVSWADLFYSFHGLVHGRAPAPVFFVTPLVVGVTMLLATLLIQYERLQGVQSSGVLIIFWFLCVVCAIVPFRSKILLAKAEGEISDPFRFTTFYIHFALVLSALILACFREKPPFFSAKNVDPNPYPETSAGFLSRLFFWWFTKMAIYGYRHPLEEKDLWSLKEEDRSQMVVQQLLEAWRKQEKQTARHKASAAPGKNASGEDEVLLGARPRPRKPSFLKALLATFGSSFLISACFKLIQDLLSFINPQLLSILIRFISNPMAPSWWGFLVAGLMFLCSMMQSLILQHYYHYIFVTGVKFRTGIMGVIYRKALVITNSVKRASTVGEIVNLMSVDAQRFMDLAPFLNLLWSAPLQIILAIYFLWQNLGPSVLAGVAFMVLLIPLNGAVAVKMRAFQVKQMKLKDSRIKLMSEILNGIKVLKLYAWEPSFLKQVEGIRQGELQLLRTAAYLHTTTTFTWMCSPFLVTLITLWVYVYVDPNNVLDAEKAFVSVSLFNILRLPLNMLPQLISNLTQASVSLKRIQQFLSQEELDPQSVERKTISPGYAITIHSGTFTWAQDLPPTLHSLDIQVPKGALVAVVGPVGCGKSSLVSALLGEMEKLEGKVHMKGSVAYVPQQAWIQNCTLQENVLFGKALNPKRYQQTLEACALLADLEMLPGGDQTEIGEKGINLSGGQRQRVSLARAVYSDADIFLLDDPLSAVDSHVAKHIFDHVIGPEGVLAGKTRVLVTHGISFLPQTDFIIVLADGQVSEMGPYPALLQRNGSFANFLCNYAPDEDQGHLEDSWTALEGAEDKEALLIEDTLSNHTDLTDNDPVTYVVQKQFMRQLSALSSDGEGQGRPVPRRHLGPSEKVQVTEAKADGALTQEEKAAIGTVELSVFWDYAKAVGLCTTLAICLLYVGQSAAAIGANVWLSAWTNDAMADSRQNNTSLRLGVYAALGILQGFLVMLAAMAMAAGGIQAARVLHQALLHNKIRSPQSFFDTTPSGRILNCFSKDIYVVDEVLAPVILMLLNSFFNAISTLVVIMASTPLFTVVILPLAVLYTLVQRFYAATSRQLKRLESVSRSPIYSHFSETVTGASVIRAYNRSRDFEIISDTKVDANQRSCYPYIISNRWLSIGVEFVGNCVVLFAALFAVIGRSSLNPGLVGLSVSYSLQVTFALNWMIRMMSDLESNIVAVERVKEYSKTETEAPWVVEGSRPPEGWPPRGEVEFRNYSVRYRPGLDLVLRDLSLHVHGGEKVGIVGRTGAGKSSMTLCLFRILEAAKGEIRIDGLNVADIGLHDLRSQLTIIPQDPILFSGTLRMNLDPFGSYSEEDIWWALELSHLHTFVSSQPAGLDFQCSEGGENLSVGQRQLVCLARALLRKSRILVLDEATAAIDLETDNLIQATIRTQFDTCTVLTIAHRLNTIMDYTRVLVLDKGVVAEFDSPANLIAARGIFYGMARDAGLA

CC#C[C@@H](CC(=O)O)c1ccc(OCC(C)=C(C)C)cc1 [CPL207280]
viability at 48 h, 3.125 µM ([1]; 3.125 uM): 98.6%
viability at 48 h, 6.25 µM ([1]; 6.25 uM): 113%
viability at 48 h, 25 µM ([1]; 25 uM): 104%
viability at 48 h, 50 µM ([1]; 50 uM): 109%
reduction of viability ([2]; HepG2, 48 h, 100 μM): 20%
viability ([2]; HepG2, 48 h, concentrations up to 10 μM): Neither compound exhibited altered viability
times better tolerated by hepatocytes than TAK-875 ([2]; hepatocytes (HepG2 and human primary cells)): 10 times
viability, normalized to DMSO-treated controls ([2]; 0.78 uM): 122.329 and 97.5265 and 106.534
viability, normalized to DMSO-treated controls ([2]; 3.125 uM): 108.127 and 98.0055
viability, normalized to DMSO-treated controls ([2]; 6.25 uM): 101.696 and 107.84
viability, normalized to DMSO-treated controls ([2]; 25 uM): 115.053 and 98.9684
viability, normalized to DMSO-treated controls ([2]; 50 uM): 104.17 and 94.9794
viability, normalized to DMSO-treated controls ([2]; 100 uM): 89.5534 and 112.297 and 99.381
viability at 48 h, 0.78 µM ([3]; 0.78 uM): 109%
viability at 48 h, 3.125 µM ([3]; 3.125 uM): 111%
viability at 48 h, 6.25 µM ([3]; 6.25 uM): 108%
viability at 48 h, 25 µM ([3]; 25 uM): 107%
viability at 48 h, 50 µM ([3]; 50 uM): 94.1%
viability at 48 h, 100 µM ([3]; 100 uM): 80.6%
viability ([4]; human primary hepatocytes, 48 h, concentrations up to 10 μM): Neither compound exhibited altered viability
reduction of viability ([4]; primary cells, 48 h, 100 μM): 20%
viability, normalized to DMSO-treated controls ([4]; 48 h, 0.78 uM): 113.603 and 101.249
viability, normalized to DMSO-treated controls ([4]; 48 h, 3.125 uM): 114.319 and 102.513
viability, normalized to DMSO-treated controls ([4]; 48 h, 6.25 uM): 112.73 and 100.537
viability, normalized to DMSO-treated controls ([4]; 48 h, 25 uM): 106.605 and 99.5091
viability, normalized to DMSO-treated controls ([4]; 48 h, 50 uM): 95.5759 and 86.1766
viability, normalized to DMSO-treated controls ([4]; 48 h, 100 uM): 81.3191 and 75.1172
Toxicity for human hepatocytes ([4]; summary comparison CPL207280 vs TAK-875): <
half-life at 3 μM [5, 12]: 81 min
microsomal CLint at 3 μM [5, 12]: 17.1 µL/min/mg
average DEG [%] ([5]; 0 min): 100.0%
average DEG [%] ([5]; 20 min): 86.5%
average DEG [%] ([5]; 40 min): 74.9%
average DEG [%] ([5]; 60 min): 59.3%
half-life at 3 μM [6, 13]: 23 min
microsomal CLint at 3 μM [6, 13]: 60.9 µL/min/mg
average DEG [%] ([6]; 0 min): 100.0%
average DEG [%] ([6]; 20 min): 64.8%
average DEG [%] ([6]; 40 min): 34.1%
average DEG [%] ([6]; 60 min): 16.3%
half-life at 3 μM [7, 14]: 31 min
microsomal CLint at 3 μM [7, 14]: 45 µL/min/mg
average DEG [%] ([7]; 0 min): 100.0%
average DEG [%] ([7]; 20 min): 67.0%
average DEG [%] ([7]; 40 min): 40.9%
average DEG [%] ([7]; 60 min): 26.3%
Accumulation in rat plasma after repeat dose [8]: No
Cmax at 14 days ([8]; both sexes, Wistar Han, rat, 1200 mg/kg, Cmax): 250 µg/mL
Cmax ([8]; both sexes, Wistar Han, rat, po, 150 mg/kg, Cmax): 125 µg/mL
AUC(0-t) ([8]; both sexes, Wistar Han, rat, po, 300 mg/kg/day): 2350 µg·h/mL
Cmax ([8]; both sexes, Wistar Han, rat, po, 300 mg/kg/day, Cmax (Mean)): 227 µg/mL
AUC(0-t) ([8]; both sexes, Wistar Han, rat, po, 600 mg/kg/day): 2920 µg·h/mL
Cmax ([8]; both sexes, Wistar Han, rat, po, 600 mg/kg/day, Cmax (Mean)): 257 µg/mL
Cmax ([8]; both sexes, Wistar Han, rat, po, 1200 mg/kg, Cmax): 222 µg/mL
AUC ([8]; both sexes, Wistar Han, rat, po, 1200 mg/kg, exposure - AUC): 2590 µg·h/mL
AUC24h (Mean) ([8]; Wistar Han, rat, po, 300 mg/kg/day): 1605030 ng x hr/mL
AUC24h (Mean) ([8]; Wistar Han, rat, po, 600 mg/kg/day): 2156620 ng x hr/mL
Accumulation (counts per minute; CPM) with AMP ([9]; conc 0.10 µM): 240 CPM and 237 CPM
Accumulation (counts per minute; CPM) with ATP ([9]; conc 0.10 µM): 3273 CPM and 4152 CPM
Accumulation (counts per minute; CPM) with AMP ([9]; conc 1.00 µM): 221 CPM and 228 CPM
Accumulation (counts per minute; CPM) with ATP ([9]; conc 1.00 µM): 4818 CPM and 3968 CPM
Accumulation (counts per minute; CPM) with AMP ([9]; conc 3.00 µM): 249 CPM and 236 CPM
Accumulation (counts per minute; CPM) with ATP ([9]; conc 3.00 µM): 4175 CPM and 4726 CPM
Accumulation (counts per minute; CPM) with AMP ([9]; conc 10.00 µM): 274 CPM and 219 CPM
Accumulation (counts per minute; CPM) with ATP ([9]; conc 10.00 µM): 3924 CPM and 3961 CPM
Accumulation (counts per minute; CPM) with AMP ([9]; conc 30.00 µM): 231 CPM and 249 CPM
Accumulation (counts per minute; CPM) with ATP ([9]; conc 30.00 µM): 5849 CPM and 5611 CPM
Accumulation (counts per minute; CPM) with AMP ([9]; conc 100.00 µM): 250 CPM and 247 CPM
Accumulation (counts per minute; CPM) with ATP ([9]; conc 100.00 µM): 5885 CPM and 4953 CPM
Accumulation (counts per minute; CPM) with AMP ([9]; conc 300.00 µM): 206 CPM and 163 CPM
Accumulation (counts per minute; CPM) with ATP ([9]; conc 300.00 µM): 6861 CPM and 6621 CPM
MRP3 Estimated IC50 (95% CI of IC50) ([9]; vesicles, up to 300μM, n = 2): no affinity
Accumulation (counts per minute; CPM) HEK293-BSEP ([10]; conc 0.41 µM): 13312 CPM and 13786 CPM and 14638 CPM
Accumulation (counts per minute; CPM) HEK293-MOCK ([10]; conc 0.41 µM): 373 CPM and 338 CPM and 317 CPM
Accumulation (counts per minute; CPM) HEK293-BSEP ([10]; conc 1.23 µM): 14288 CPM and 14991 CPM and 14336 CPM
Accumulation (counts per minute; CPM) HEK293-MOCK ([10]; conc 1.23 µM): 402 CPM and 297 CPM and 306 CPM
Accumulation (counts per minute; CPM) HEK293-BSEP ([10]; conc 3.70 µM): 14804 CPM and 15510 CPM and 14684 CPM
Accumulation (counts per minute; CPM) HEK293-MOCK ([10]; conc 3.70 µM): 350 CPM and 288 CPM and 349 CPM
Accumulation (counts per minute; CPM) HEK293-BSEP ([10]; conc 11.11 µM): 14585 CPM and 13490 CPM and 14701 CPM
Accumulation (counts per minute; CPM) HEK293-MOCK ([10]; conc 11.11 µM): 382 CPM and 355 CPM and 370 CPM
Accumulation (counts per minute; CPM) HEK293-BSEP ([10]; conc 33.33 µM): 14312 CPM and 13194 CPM and 13689 CPM
Accumulation (counts per minute; CPM) HEK293-MOCK ([10]; conc 33.33 µM): 426 CPM and 364 CPM and 386 CPM
Accumulation (counts per minute; CPM) HEK293-BSEP ([10]; conc 100 µM): 10784 CPM and 11964 CPM and 11554 CPM
Accumulation (counts per minute; CPM) HEK293-MOCK ([10]; conc 100 µM): 273 CPM and 371 CPM
IC50 [11]: 118 µM
fold less inhibitory potency than TAK-875, OATP1A2 [11]: at least 10 fold
Accumulation (counts per minute; CPM) HEK293FT-MOCK ([11]; conc 0.10 µM): 191 CPM and 198 CPM
Accumulation (counts per minute; CPM) HEK293FT-OATP1A2 ([11]; conc 0.10 µM): 9941 CPM and 9363 CPM
Accumulation (counts per minute; CPM) HEK293FT-MOCK ([11]; conc 1.00 µM): 175 CPM and 167 CPM
Accumulation (counts per minute; CPM) HEK293FT-OATP1A2 ([11]; conc 1.00 µM): 9582 CPM and 8309 CPM
Accumulation (counts per minute; CPM) HEK293FT-MOCK ([11]; conc 3.00 µM): 170 CPM and 189 CPM
Accumulation (counts per minute; CPM) HEK293FT-OATP1A2 ([11]; conc 3.00 µM): 9105 CPM and 8526 CPM
Accumulation (counts per minute; CPM) HEK293FT-MOCK ([11]; conc 10.00 µM): 199 CPM and 184 CPM
Accumulation (counts per minute; CPM) HEK293FT-OATP1A2 ([11]; conc 10.00 µM): 8813 CPM and 8062 CPM
Accumulation (counts per minute; CPM) HEK293FT-MOCK ([11]; conc 30.00 µM): 160 CPM and 178 CPM
Accumulation (counts per minute; CPM) HEK293FT-OATP1A2 ([11]; conc 30.00 µM): 6805 CPM and 7468 CPM
Accumulation (counts per minute; CPM) HEK293FT-MOCK ([11]; conc 100.00 µM): 179 CPM and 165 CPM
Accumulation (counts per minute; CPM) HEK293FT-OATP1A2 ([11]; conc 100.00 µM): 5379 CPM and 5182 CPM
Accumulation (counts per minute; CPM) HEK293FT-MOCK ([11]; conc 300.00 µM): 144 CPM and 136 CPM
Accumulation (counts per minute; CPM) HEK293FT-OATP1A2 ([11]; conc 300.00 µM): 2696 CPM and 2783 CPM
